Reference: US6737383B1, “Herbicidal oxadiazolidines” (priority 1999, dated 2004)

Key:
corn = assay: Test B pre/postemergence corn; assay type: in vivo, Zea mays
In short: (§1)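 Herbicidal effect was estimated by eye on a ten-point control scale after plants spent twelve to sixteen days in a greenhouse following soil or foliar treatment. Foliar sprays targeted plants at one to four leaves; all doses were formulated in a non-phytotoxic solvent with surfactant.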

morningglory = assay: Test B pre/postemergence morningglory; assay type: in vivo, Ipomoea hederacea
In short: as §1

wheat = assay: Test B pre/postemergence wheat; assay type: in vivo, Triticum aestivum
In short: as §1

velvetleaf = assay: Test B pre/postemergence velvetleaf; assay type: in vivo, Abutilon theophrasti
In short: as §1

rape = assay: Test B pre/postemergence rape; assay type: in vivo, Brassica napus
In short: as §1

purple nutsedge = assay: Test B pre/postemergence purple nutsedge; assay type: in vivo, Cyperus rotundus
In short: as §1

soybean = assay: Test B pre/postemergence soybean; assay type: in vivo, Glycine max
In short: as §1

bamyardgrass = assay: Test B flood test barnyardgrass; assay type: in vivo, Echinochloa crus-galli
In short: (§2)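 Flood test on plants grown to the 2-leaf stage; treated plants kept in greenhouse twelve to sixteen days, then visually rated against controls on a 0 (no effect) to 10 (complete control) scale.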

surinam grass = assay: Test B pre/postemergence surinam grass; assay type: in vivo, Brachiaria decumbens
In short: as §1

pigweed = assay: Test B pre/postemergence pigweed; assay type: in vivo, Amaranthus retroflexus
In short: as §1

cocklebur = assay: Test B pre/postemergence cocklebur; assay type: in vivo, Xanthium strumarium
In short: as §1

duck salad = assay: Test B flood test duck salad; assay type: in vivo, Heteranthera limosa
In short: as §2

sugar beet = assay: Test B pre/postemergence sugar beet; assay type: in vivo, Beta vulgaris
In short: as §1

wild oat = assay: Test B pre/postemergence wild oat; assay type: in vivo, Avena fatua
In short: as §1

bedstraw = assay: Test B pre/postemergence bedstraw; assay type: in vivo, Galium aparine; conditions: Postemergence
In short: as §1

rice = assay: Test B flood test rice; assay type: in vivo, Oryza sativa
In short: as §2

giant foxtail = assay: Test B pre/postemergence giant foxtail; assay type: in vivo, Setaria faberii
In short: as §1

smallflower flatsedge = assay: Test B flood test smallflower flatsedge; assay type: in vivo, Cyperus difformis
In short: as §2

crabgrass = assay: Test B pre/postemergence crabgrass; assay type: in vivo, Digitaria sanguinalis
In short: as §1

blackgrass = assay: Test B pre/postemergence blackgrass; assay type: in vivo, Alopecurus myosuroides
In short: as §1

[1] = Postemergence, Rate 62 g/ha, scale 0 to 10, 0 is no effect, 10 is complete control
[2] = Postemergence, Rate 125 g/ha, scale of 0 to 10 where 0 is no effect and 10 is complete control
[3] = Postemergence, Rate 250 g/ha, scale of 0 to 10, 0 is no effect, 10 is complete control
[4] = Postemergence, Rate 500 g/ha, scale of 0 to 10 where 0 is no effect and 10 is complete control
[5] = Preemergence, Rate 62 g/ha, scale 0 to 10 (0 no effect, 10 complete control)
[6] = Preemergence, Rate 125 g/ha, scale of 0 to 10 where 0 is no effect and 10 is complete control
[7] = Preemergence, Rate 500 g/ha, scale of 0 to 10 where 0 is no effect and 10 is complete control
[8] = Rate 62 g/ha, flood test species, Pre-emergence, visual evaluation after twelve to sixteen days
[9] = Rate 125 g/ha, under heading Pre-emergence, flood test species, visual evaluation after twelve to sixteen days
[10] = Rate 250 g/ha, Pre-emergence (flood test species), scale 0 to 10, 0 is no effect, 10 is complete control
[11] = Rate 500 g/ha, Pre-emergence section of Table B, 0 to 10 scale (0 no effect, 10 complete control)

C=C(Cn1c(=O)on(C(=O)N(c2ccccc2)C(C)C)c1=O)c1ccc(F)cc1 [Compound 606]
8: Plant response rating, Crabgrass (crabgrass; [7])
10: Plant response rating, Morningglory (morningglory; [2]) | Morningglory plant response rating (morningglory; [3])
4: Plant response rating, Rape (rape; [4])
2: Plant response rating, Rape (rape; [2]) | Plant response rating, Soybean (soybean; [2]) | Soybean plant response rating (soybean; [3]) | Plant response rating, Redroot pigweed (pigweed; [4])
9: Plant response rating, Giant foxtail (giant foxtail; [7])
0: Plant response rating, Corn (corn; [1]) | Plant response rating, Corn (corn; [2]) | Corn plant response rating (corn; [3]) | Plant response rating, Corn (corn; [4]) | Corn plant response rating (corn; [5]) | Corn plant response rating (corn; [6]) | Corn plant response rating (0 to 10 scale) (corn; Preemergence, Rate 250 g/ha) | Plant response rating, Corn (corn; [7]) | Morningglory plant response rating (morningglory; [5]) | Morningglory plant response rating (morningglory; [6]) | Plant response rating, Morningglory (morningglory; [7]) | Plant response rating, Wheat (wheat; [1]) | Plant response rating, Wheat (wheat; [2]) | Wheat plant response rating (wheat; [3]) | Plant response rating, Wheat (wheat; [4]) | Wheat plant response rating (wheat; [5]) | Wheat plant response rating (wheat; [6]) | Plant response rating, Wheat (wheat; [7]) | Plant response rating, Velvetleaf (velvetleaf; [1]) | Plant response rating, Velvetleaf (velvetleaf; [2]) | Velvetleaf plant response rating (velvetleaf; [3]) | Velvetleaf plant response rating (velvetleaf; [5]) | Velvetleaf plant response rating (velvetleaf; [6]) | Plant response rating, Velvetleaf (velvetleaf; [7]) | Rape plant response rating (rape; [5]) | Rape plant response rating (rape; [6]) | Plant response rating, Rape (rape; [7]) | Plant response rating, Nutsedge (purple nutsedge; [1]) | Plant response rating, Nutsedge (purple nutsedge; [2]) | Plant response rating, Nutsedge (purple nutsedge; [4]) | Nutsedge plant response rating (purple nutsedge; [5]) | Nutsedge plant response rating (purple nutsedge; [6]) | Plant response rating, Nutsedge (purple nutsedge; [7]) | Soybean plant response rating (soybean; [5]) | Soybean plant response rating (soybean; [6]) | Plant response rating, Soybean (soybean; [7]) | Plant response rating, Barnyardgrass (0 to 10 scale, 0 is no effect, 10 is complete control) (bamyardgrass; [8]) | Barnyardgrass plant response rating (0 to 10 scale, 0 is no effect, 10 is complete control) (bamyardgrass; [9]) | Barnyardgrass plant response rating (bamyardgrass; [10]) | Barnyardgrass plant response rating (bamyardgrass; [11]) | Plant response rating, B. signalgrass (surinam grass; [1]) | Plant response rating, B. signalgrass (surinam grass; [2]) | B. signalgrass plant response rating (surinam grass; [3]) | Plant response rating, B. signalgrass (surinam grass; [4]) | B. signalgrass plant response rating (surinam grass; [5]) | B. signalgrass plant response rating (surinam grass; [6]) | B. signalgrass plant response rating (0 to 10 scale, 0 is no effect, 10 is complete control) (surinam grass; Preemergence, Rate 250 g/ha) | B. signalgrass plant response rating (surinam grass; [7]) | Plant response rating, Redroot pigweed (pigweed; [1]) | Plant response rating, Redroot pigweed (pigweed; [2]) | Redroot pigweed plant response rating (pigweed; [5]) | Redroot pigweed plant response rating (pigweed; [6]) | Plant response rating, Redroot pigweed (pigweed; [7]) | Plant response rating, Cocklebur (cocklebur; [1]) | Plant response rating, Cocklebur (cocklebur; [2]) | Cocklebur plant response rating (cocklebur; [3]) | Plant response rating, Cocklebur (cocklebur; [4]) | Cocklebur plant response rating (cocklebur; [5]) | Cocklebur plant response rating (cocklebur; [6]) | Cocklebur plant response rating (0 to 10 scale) (cocklebur; Preemergence, Rate 250 g/ha) | Plant response rating, Cocklebur (cocklebur; [7]) | Plant response rating, Ducksalad (0 to 10 scale, 0 is no effect, 10 is complete control) (duck salad; [8]) | Ducksalad plant response rating (0 to 10 scale, 0 is no effect, 10 is complete control) (duck salad; [9]) | Ducksalad plant response rating (duck salad; [10]) | Ducksalad plant response rating (duck salad; [11]) | Plant response rating, Sugarbeets (sugar beet; [1]) | Plant response rating, Sugarbeets (sugar beet; [2]) | Sugarbeets plant response rating (sugar beet; [3]) | Plant response rating, Sugarbeets (sugar beet; [4]) | Sugarbeets plant response rating (sugar beet; [5]) | Sugarbeets plant response rating (sugar beet; [6]) | Plant response rating, Sugarbeets (sugar beet; [7]) | Plant response rating, Wild oats (wild oat; [1]) | Plant response rating, Wild oats (wild oat; [2]) | Wild oats plant response rating (wild oat; [3]) | Plant response rating, Wild oats (wild oat; [4]) | Wild oats plant response rating (wild oat; [5]) | Wild oats plant response rating (wild oat; [6]) | Plant response rating, Bedstraw (bedstraw; Rate 62 g/ha, scale 0 to 10, 0 is no effect, 10 is complete control) | Bedstraw plant response rating (bedstraw; Rate 250 g/ha, scale of 0 to 10, 0 is no effect, 10 is complete control) | Plant response rating, Bedstraw (bedstraw; Rate 500 g/ha, scale of 0 to 10 where 0 is no effect and 10 is complete control) | Plant response rating, Rice (0 to 10 scale, 0 is no effect, 10 is complete control) (rice; [8]) | Rice plant response rating (0 to 10 scale, 0 is no effect, 10 is complete control) (rice; [9]) | Rice plant response rating (rice; [10]) | Rice plant response rating (rice; [11]) | Plant response rating, Giant foxtail (giant foxtail; [1]) | Plant response rating, Giant foxtail (giant foxtail; [2]) | Giant foxtail plant response rating (giant foxtail; [3]) | Giant foxtail plant response rating (giant foxtail; [5]) | Plant response rating, S. Flatsedge (0 to 10 scale, 0 is no effect, 10 is complete control) (smallflower flatsedge; [8]) | S. Flatsedge plant response rating (0 to 10 scale, 0 is no effect, 10 is complete control) (smallflower flatsedge; [9]) | S. Flatsedge plant response rating (smallflower flatsedge; [10]) | S. Flatsedge plant response rating (smallflower flatsedge; [11]) | Plant response rating, Crabgrass (crabgrass; [1]) | Crabgrass plant response rating (crabgrass; [5]) | Plant response rating, Blackgrass (blackgrass; [1]) | Plant response rating, Blackgrass (blackgrass; [2]) | Blackgrass plant response rating (blackgrass; [3]) | Blackgrass plant response rating (blackgrass; [5]) | Blackgrass plant response rating (blackgrass; [6]) | Blackgrass plant response rating (0 to 10 scale) (blackgrass; Preemergence, Rate 250 g/ha)
3: Plant response rating, Velvetleaf (velvetleaf; [4]) | Rape plant response rating (rape; [3]) | Plant response rating, Wild oats (wild oat; [7]) | Plant response rating, Giant foxtail (giant foxtail; [4]) | Plant response rating, Crabgrass (crabgrass; [2]) | Crabgrass plant response rating (crabgrass; [3]) | Blackgrass plant response rating (blackgrass; [7])
6: Plant response rating, Morningglory (morningglory; [1]) | Giant foxtail plant response rating (giant foxtail; [6])
1: Plant response rating, Soybean (soybean; [1]) | Redroot pigweed plant response rating (pigweed; [3]) | Plant response rating, Blackgrass (blackgrass; [4])
